This note sets out measurements from US6531477B1, “6-substituted pyrazolo [3,4-d] pyrimidin-4-ones useful as cyclin dependent kinase inhibitors” (DuPont Pharmaceuticals Company, priority 1998, dated 2003).

Structures are written as SMILES.

In turn, `CCc1[nH]n(-c2c(Cl)cc(Cl)cc2Cl)c2nc(C(O)c3ccccc3)nc(=O)c1-2` (racemic) [Example 117, (+/−)-1-(2,4,6-Trichlorophenyl)-3-ethyl-6-(α-hydroxybenzyl)pyrazolo[3,4-d]pyrimidin-4-one] returned a melting point of 246 to 248 °C.
For the compound `COc1cccc(Cc2nc3n(-c4c(Cl)cc(Cl)cc4Cl)[nH]c(SC)c-3c(=O)n2)c1` [Example 1, 1-(2,4,6-Trichlorophenyl)-3-(methylthio)-6-(3-methoxybenzyl)pyrazolo[3,4-d]pyrimidin-4-one], the melting point was 245 to 248 °C.
In turn, `CSc1[nH]n(-c2c(Cl)cc(Cl)cc2Cl)c2nc(Cc3cccc(O)c3)nc(=O)c1-2` [Example 2, 1-(2,4,6-Trichlorophenyl)-3-(methylthio)-6-(3-hydroxybenzyl)pyrazolo[3,4-d]pyrimidin-4-one] came in with a melting point of 264 to 266 °C.
The compound `CSc1nn(-c2c(Cl)cc(Cl)cc2Cl)c2nc(Cc3ccncc3)[nH]c(=O)c12` [Example 5] showed a melting point of 283 to 287 °C.
Consider `COc1ccc(Cc2nc3c(c(SC)nn3-c3c(Cl)cc(Cl)cc3Cl)c(=O)[nH]2)cc1OC` [Example 6], for which the melting point lay in the range of 226 to 230 °C.
`CSc1nn(-c2c(Cl)cc(Cl)cc2Cl)c2nc(Cc3cccc([N+](=O)[O-])c3)[nH]c(=O)c12` [Example 7]: the melting point lay within 243 to 255 °C.
In turn, `COc1ccc(Cc2nc3c(c(SC)nn3-c3c(Cl)cc(Cl)cc3Cl)c(=O)[nH]2)cc1` [Example 8] yielded a melting point of 263 to 267 °C.
For `CSc1nn(-c2c(Cl)cc(Cl)cc2Cl)c2nc(Cc3ccc(O)cc3)[nH]c(=O)c12` [Example 9], the melting point fell in the range of 294 to 296 °C.
`CSc1nn(-c2c(Cl)cc(Cl)cc2Cl)c2nc(Cc3ccc4c(c3)OCO4)[nH]c(=O)c12` [Example 13] had a melting point of 257 to 260 °C.
`CCc1nn(-c2c(Cl)cc(Cl)cc2Cl)c2nc(Cc3c[nH]c4ccccc34)[nH]c(=O)c12` [Example 18] gave a melting point of 296 to 299 °C.
Next, `CCc1nn(-c2c(Cl)cc(Cl)cc2Cl)c2nc(Cc3cc(OC)c(OC)c(OC)c3)[nH]c(=O)c12` [Example 24]: 224 to 226 °C; `CCc1nn(-c2c(Cl)cc(Cl)cc2Cl)c2nc(Cc3ccc(O)c([N+](=O)[O-])c3)[nH]c(=O)c12` [Example 26]: 263 to 266 °C; `CCc1nn(-c2c(Cl)cc(Cl)cc2Cl)c2nc(Cc3c[nH]c4ccc(OC)cc34)[nH]c(=O)c12` [Example 40]: 295 to 298 °C.
As to `CCc1nn(-c2c(Cl)cc(Cl)cc2Cl)c2nc(Cc3cccc(CC(=O)O)c3)[nH]c(=O)c12` [Example 47], the melting point was in the range of 192 to 194 °C.
In turn, `CC(C)c1nn(-c2c(Cl)cc(Cl)cc2Cl)c2nc(Cc3ccc(N)cc3)[nH]c(=O)c12` [Example 52] returned a melting point of 223 to 225 °C.
Regarding `COc1cc(Cc2nc3c(c(C(C)C)nn3-c3c(Cl)cc(Cl)cc3Cl)c(=O)[nH]2)ccc1N` [Example 54], the melting point lay within 238 to 240 °C.
To `CC(C)c1nn(-c2c(Cl)cc(Cl)cc2Cl)c2nc(Cc3ccc(N)c(O)c3)[nH]c(=O)c12` [Example 55] belongs 210 to 217 °C (dec.).
On to `CC(C)c1nn(-c2c(Cl)cc(Cl)cc2Cl)c2nc(Cc3ccc(Br)cc3)[nH]c(=O)c12` [Example 59], for which the melting point lay within 229 to 230 °C.
Consider `CC(C)c1nn(-c2c(Cl)cc(Cl)cc2Cl)c2nc(Cc3ccccn3)[nH]c(=O)c12` [Example 60], for which the melting point fell in the range of 214 to 215 °C.
`CC(C)c1nn(-c2c(Cl)cc(Cl)cc2Cl)c2nc(Cc3ccncc3)[nH]c(=O)c12` [Example 61] showed a melting point of 273 to 275 °C.
To `Cc1ccc(Cc2nc3c(c(C(C)C)nn3-c3c(Cl)cc(Cl)cc3Cl)c(=O)[nH]2)cc1` [Example 62] belongs 205 to 206 °C; to `Cc1ccccc1Cc1nc2c(c(C(C)C)nn2-c2c(Cl)cc(Cl)cc2Cl)c(=O)[nH]1` [Example 63], 194 to 195 °C.
As to `CC(C)c1nn(-c2c(Cl)cc(Cl)cc2Cl)c2nc(Cc3cccnc3)[nH]c(=O)c12` [Example 64], the melting point is 214 to 215 °C.
`Cc1ccncc1Cc1nc2c(c(C(C)C)nn2-c2c(Cl)cc(Cl)cc2Cl)c(=O)[nH]1` [Example 65] returned a melting point of 225 to 227 °C.
The compound `CNc1ccc(Cc2nc3c(c(C(C)C)nn3-c3c(Cl)cc(Cl)cc3Cl)c(=O)[nH]2)cc1` [Example 67] gave a melting point of 244 to 246 °C.
Consider `CC(C)c1nn(-c2c(Cl)cc(Cl)cc2Cl)c2nc(Cc3cnccc3Cl)[nH]c(=O)c12` [Example 69], for which the melting point lay within 245 to 248 °C.
To `O=c1[nH]c(Cc2ccc3[nH]ncc3c2)nc2c1c(C1CC1)nn2-c1c(Cl)cc(Cl)cc1Cl` [Example 72] belongs 274 to 283 °C; to `O=c1[nH]c(Cc2ccc([N+](=O)[O-])c(O)c2)nc2c1c(C1CC1)nn2-c1c(Cl)cc(Cl)cc1Cl` [Example 76], 259 to 260 °C.
To `COc1ccc(Cc2nc3c(c(C(F)(F)F)nn3-c3c(Cl)cc(Cl)cc3Cl)c(=O)[nH]2)cc1` [Example 82] belongs 263 to 265 °C.
Consider `CC(C)c1[nH]n(-c2c(Cl)cc(Cl)cc2Cl)c2nc(Cc3ccc(N(C(=O)OC(C)(C)C)C(=O)[C@@H]4CCCN4)cc3)nc(=O)c1-2` [Example 113, (S)-1-(2,4,6-Trichlorophenyl)-3-isopropyl-6-(4-(N-t-butoxycarbonylprolinamido)benzyl)pyrazolo[3,4-d]pyrimidin-4-one], for which the melting point lay in the range of 225 to 226 °C.
Compound `CCOC(=O)Cc1ccc(Cc2nc3n(-c4c(Cl)cccc4Cl)[nH]c(C(C)C)c-3c(=O)n2)cc1` [Example 122, 1-(2,6-Dichlorophenyl)-3-isopropyl-6-(4-(carbethoxymethyl)benzyl)pyrazolo[3,4-d]pyrimidin-4-one] yielded a melting point of 168 to 169 °C.
In turn, `CC(C)c1[nH]n(-c2c(Cl)cccc2Cl)c2nc(Cc3ccc(CC(=O)O)cc3)nc(=O)c1-2` [Example 123, 1-(2,6-Dichlorophenyl)-3-isopropyl-6-(4-(carboxymethyl)benzyl)pyrazolo[3,4-d]pyrimidin-4-one] displayed a melting point of 212 to 214 °C.
As to `CC(C)c1[nH]n(-c2c(Cl)cccc2Cl)c2nc(Cc3ccc(CC(=O)NCCN(C)C)cc3)nc(=O)c1-2` [Example 124, 1-(2,6-Dichlorophenyl)-3-isopropyl-6-(4-(2-(N,N-dimethylamino)ethylaminocarbonylmethyl)benzyl)pyrazolo[3,4-d]pyrimidin-4-one], the melting point was 170 to 172 °C.
Consider `Cc1cccc(Cl)c1-n1[nH]c(C(C)C)c2c(=O)nc(Cc3ccc(N)cc3)nc1-2` [Example 127, 1-(2-Chloro-6-methylphenyl)-3-isopropyl-6-(4-aminobenzyl)pyrazolo[3,4-d]pyrimidin-4-one], for which the melting point was in the range of 206 to 207 °C.
Next, `CC(C)c1[nH]n(-c2c(Cl)cc(Cl)cc2Cl)c2nc(Cc3ccc(NC(=O)OCCN(C)C)cc3)nc(=O)c1-2` [Example 133, 1-(2,4,6-Trichlorophenyl)-3-isopropyl-6-(4-(2-(dimethylamino)ethoxycarbonylamino)benzyl)pyrazolo[3,4-d]pyrimidin-4-one]: 218 to 220 °C.
